Measurements reported in PMC8667925, “New 1,2,4-oxadiazole derivatives with positive mGlu4 receptor modulation activity and antipsychotic-like properties” (Journal of Enzyme Inhibition and Medicinal Chemistry, 2021).
“Also recorded” adds a separate entry of the source. Like-named read-outs stand apart in the source and are kept apart here. Marks after values point to notes of the source that are not given here.

Assays:
mGlu4 receptor [1] = settings: cited from earlier work
DOI-induced HTR = tested on: DOI-induced HTR; design: method as in PMID 24947466; settings: medium dose of 3, 10 and 30 mg/kg; cited from earlier work
mGlu7 receptor = target: T1, mGlu7 receptor (Homo sapiens, UniProt Q14831); experiment: cAMP accumulation assay in cells expressing mGlu7 receptor (agonist, PAM, NAM modes); format: cell-based; settings: 10 µM, agonist mode
T1 construct: mGlu4 receptor NM_000841, mGlu7 receptor NM_000844.2, and mGlu8 receptor NM_000845; expressed in transfected cells; host or cells: T-REx 293
Protocol: (§1) The compounds were tested in the agonist, PAM (in the presence of EC20 concentration of L-Glu) or NAM (with EC80 of L-Glu) modes of forskolin-induced cAMP using T-REx 293 cells expressing the protein of a given receptor.
(§2) Figure 4. The activity of compounds 34, 37, 49, 52, 60, 62 and reference drugs MMPIP (a selective NAM of mGlu7 receptor) and AZ12216052 (a PAM of mGlu8 receptor) tested at a concentration of 10 μM in the cAMP accumulation assay in cells expressing mGlu7 and mGlu8 receptors. The percent activity refers to two extreme FRET signals: 0% corresponds to forskolin treatment alone and 100% to maximal FRET signal for the control cells (without any treatment). A/D – agonistic activity; B/E – PAM activity measured in the presence of L-Glu at the EC20 concentration (0.1 mM for mGlu7 receptor, and 1 μM for mGlu8 receptor); C/F – NAM activity measured in the presence of L-Glu at the EC80 concentration (1 mM for mGlu7 receptor, 10 μM for Glu8 receptor).
(§3) Determination of the intracellular cAMP through a homogeneous time-resolved fluorescence (HTRF) cAMP dynamic 2 kit from Cisbio (Codolet, France) was described previously by Chruścicka et al.[91]. Briefly, cells were grown in DMEM supplemented with 10% foetal bovine serum (FBS) (tetracycline free). Forty-eight hours before the experiments, mGlu receptor expression was induced by the addition of 0.75 µg/mL tetracycline. Twenty hours before the experiment, FBS and L-Glu were removed from the medium. Thereafter, the cells were scraped and centrifuged. A cell pellet was suspended in Hanks-HEPES (130 mM NaCl, 5.4 mM KCl, 1.8 mM CaCl2, 0.8 mM MgSO4, 0.9 mM NaH2PO4, 20 mM HEPES, and 3.25 mM glucose; pH 7.4). Then, the cell suspension was incubated in the presence of 10 µM forskolin (or 3 µM forskolin for mGlu7 receptor), the agonist L-glutamate and a compound for 5 min. Next, 10 µl of the cell suspension was mixed with 5 µl of cAMP-d2 conjugate and 5 µL of anti-cAMP cryptate conjugate. After 1 h of incubation at rt, the fluorescence at 620 nm and 665 nm was read (Tecan Infinite M1000). The results were calculated as the 665 nm/620 nm ratio multiplied by 10^4. Each sample was prepared in triplicate.

Albino Swiss mice [2] = experiment: modified stress-induced hyperthermia (SIH) in singly housed mice; format: in vivo; settings: over the doses 5, 10 and 20 mg/kg i.p.
Protocol: (§4) The compounds were dissolved in a small amount of 100% EtOH and then adjusted with 20% cyclodextrin, and the pH was adjusted to 6.0. The investigated compounds were administered intraperitoneally (i.p.) 60 min before the behavioural test. Control drugs i.e. diazepam, clozapine and imipramine (Sigma–Aldrich, St. Louis, USA), were administered i.p. 60 min before the behavioural test. Cyclodextrin (20%) was used as a vehicle. All solutions were prepared immediately prior to the experiments and were administered at a constant volume of 10 ml/kg.
The procedure for modified stress-induced hyperthermia was adapted from Van der Heyden[93] and based on the procedure introduced by Borsini[94]. Each experimental group consisted of eight to ten animals. The animals were housed individually in a 26 × 21 × 14 cm Macolon cage 24 h before testing. For this assay, the body temperature was measured for each mouse at t = 0 min (T1) and t = +15 min (T2). Albino Swiss mice were placed into a new cage immediately following T1, with the difference in temperature (T2−T1) used as the measure of stress-induced hyperthermia. […] A comparison between T1 in vehicle-treated mice and those administered the test compound was used to determine whether the agent affects body temperature alone. Diazepam (5 mg/kg) was used as the positive control. The rectal temperature was measured to the nearest 0.1 °C with a Physitemp Theralert thermometer, TH-5, Clifton NJ, USA, with the temperature sensor for mice, Type T, Copper-Constantan Thermocouple, Braintree Scientific Inc. The lubricated thermistor probe (2 mm diameter) was inserted 20 mm into the rectum. The mouse was held at the base of the tail during this determination, and the thermistor probe was left in place until a constant reading was obtained for 15 s. The effects of the investigated compounds on the SIH response were investigated after administration of the compounds at doses of 5, 10 and 20 mg/kg.

mGlu4 receptor [3] = target: T2, mGlu4 receptor (Homo sapiens, UniProt Q14833); experiment: forskolin-stimulated cAMP assay, PAM mode (EC20 of L-Glu), T-REx 293 cells; format: cell-based; settings: SEM where given; for EC50 / Emax: PAM mode; for EC50: EC20 (3 µM) L-Glu, T-REx 293 cells expressing human mGlu4 receptor; for Emax: T-REx-293, human mGlu4, read-out: GluMax; for Fold shift of L-Glu dose-response curve: in the presence of 10 µM of compound
T2 construct: mGlu4 receptor NM_000841, mGlu7 receptor NM_000844.2, and mGlu8 receptor NM_000845; expressed in transfected cells; host or cells: T-REx 293
Protocol: The activity of the compounds was assessed in vitro in a forskolin-stimulated cAMP assay in T-REx 293 cells expressing human mGlu4 receptors in the presence of an EC20 concentration of L-Glu; a PAM was identified if it potentiated cAMP inhibition by the Gi/o-dependent pathway of mGlu4 receptor activation; i.e. if it was able to produce a leftward shift in the potency of the endogenous agonist.
as §3
Statistical calculations were performed using GraphPad Prism 5.04 software (GraphPad Software, La Jolla, CA, USA). The curves were fitted to a 3-parametric logistic equation, allowing for the determination of EC50 values. Each data point was analysed in triplicate.

Albino Swiss mice [4] = experiment: DOI-induced head twitch test (HTR); format: in vivo; settings: over the doses 2.5, 5 and 10 mg/kg i.p.; DOI 2.5 mg/kg i.p.
Protocol: as §4
The experiments were performed according to the procedure described in our previous studies[75]^,[80]. Briefly, to habituate mice to the experimental environment, each animal was transferred to a 12 cm (diameter) × 20 cm (height) glass cage lined with sawdust 30 min before treatment. Test compounds were administered intraperitoneally (i.p.) at doses of 2.5, 5, and 10 mg/kg body weight 60 min before the test was performed. The head twitch response (HTR) in mice was induced by DOI (2.5 mg/kg, i.p.). Immediately after treatment, the number of head twitches was counted during a 20 min session. Haloperidol and clozapine were used as the reference compounds at active doses of 0.2 and 5 mg/kg, respectively.

[5] = tested on: Salmonella typhimurium strains TA98 and TA100; format: cell-based; settings: TA98 and TA100, with and without S9, ≤ 30 µM
Protocol: The primary assessment of the cardiotoxic risk and mutagenic potential of the six selected 1,2,4-oxadiazole derivatives was performed in the hERG channel assay and the mini-AMES test, respectively. The mutagenicity potential was determined in strains TA98 (frameshift mutation) and TA100 (base-pair substitution) of Salmonella typhimurium in the presence and absence of an exogenous metabolic activation system (rat liver S9 fraction) containing mammalian microsomal enzymes.
The Ames microplate fluctuation protocol (MPF) assay was performed with Salmonella typhimurium strains TA98 and TA100, […]. The bacterial strain as well as the exposure and indicator medium were obtained from Xenometrix AG (Allschwil, Switzerland). […] After the addition of indicator medium, each well of the 24-well plate was aliquoted into 48 wells of a 384-well plate.
The occurrence of reversion events to histidine prototrophy was observed as the growth of bacteria in the indicator medium without histidine after 72 h of incubation at 37 °C. Bacterial growth in 384-well plates was visualised by a colour change of medium from violet to yellow due to the addition of pH indicator dye. The absorbance was measured with a microplate reader (EnSpire) at 420 nm. The reference mutagen NQNO (0.5 mM) was used as a positive control in the experiments. The medium control baseline (MCB) was calculated, as derived from the mean number of revertants in the medium control plus one standard deviation.
AMES test was conducted with two Salmonella typhimurium strains TA98 and TA100 in the presence or absence of liver homogenate S9 to simulate the metabolic conversions of tested compounds with liver enzymes. The AMES MPF 98/100 assay from Xenometrix was performed as described by the supplier. Data were analysed with the AMES MPF calculation […]
(also on this page, place not known: TA10 cal culation TA98 - S9 Revertants TA98 + S9 Revertants - S9 Revertants TA100 + S9 Revertants TA98 - S9 Revertants TA98 + S9 Revertants TA100 - S9 Revertants 0 TA100 + S9 Revertants)

mGlu4 receptor [6] = target: T2, mGlu4 receptor; experiment: forskolin-induced cAMP assay, agonist mode, T-REx 293 cells; format: cell-based
Protocol: as §1, §3

mGlu8 receptor = target: T3, mGlu8 receptor (Homo sapiens, UniProt O00222); experiment: cAMP accumulation assay in cells expressing mGlu8 receptor (agonist, PAM, NAM modes); format: cell-based; settings: 10 µM, agonist mode
T3 construct: mGlu4 receptor NM_000841, mGlu7 receptor NM_000844.2, and mGlu8 receptor NM_000845; expressed in transfected cells; host or cells: T-REx 293
Protocol: as §1, §2, §3

[7] = tested on: untransfected cells of the T-REx 293 line; experiment: forskolin-induced cAMP accumulation in untransfected (mock) cells, control experiment; format: cell-based; settings: untransfected T-REx 293 cells
Protocol: 2. In vitro mGlu receptor selectivity profile
Figure S1. Activity of compounds 34, 37, 49, 52, 60 and 62 in forskolin -induced cAMP accumulation in untransfected cells of the T-REx 293 line. Similar to reference mGlu4 receptor […]
cAMP assay in the mock T-REx 293 cell line. […]
receptor used as reference drug) tested at a concentration of 10 μM in NAM mode (in the presence of EC80 concentration of L-Glu (30 μM)) by the cAMP accumulation assay in cells expressing mGlu4 receptor. […]

T2 sequence (Q14833 33-912): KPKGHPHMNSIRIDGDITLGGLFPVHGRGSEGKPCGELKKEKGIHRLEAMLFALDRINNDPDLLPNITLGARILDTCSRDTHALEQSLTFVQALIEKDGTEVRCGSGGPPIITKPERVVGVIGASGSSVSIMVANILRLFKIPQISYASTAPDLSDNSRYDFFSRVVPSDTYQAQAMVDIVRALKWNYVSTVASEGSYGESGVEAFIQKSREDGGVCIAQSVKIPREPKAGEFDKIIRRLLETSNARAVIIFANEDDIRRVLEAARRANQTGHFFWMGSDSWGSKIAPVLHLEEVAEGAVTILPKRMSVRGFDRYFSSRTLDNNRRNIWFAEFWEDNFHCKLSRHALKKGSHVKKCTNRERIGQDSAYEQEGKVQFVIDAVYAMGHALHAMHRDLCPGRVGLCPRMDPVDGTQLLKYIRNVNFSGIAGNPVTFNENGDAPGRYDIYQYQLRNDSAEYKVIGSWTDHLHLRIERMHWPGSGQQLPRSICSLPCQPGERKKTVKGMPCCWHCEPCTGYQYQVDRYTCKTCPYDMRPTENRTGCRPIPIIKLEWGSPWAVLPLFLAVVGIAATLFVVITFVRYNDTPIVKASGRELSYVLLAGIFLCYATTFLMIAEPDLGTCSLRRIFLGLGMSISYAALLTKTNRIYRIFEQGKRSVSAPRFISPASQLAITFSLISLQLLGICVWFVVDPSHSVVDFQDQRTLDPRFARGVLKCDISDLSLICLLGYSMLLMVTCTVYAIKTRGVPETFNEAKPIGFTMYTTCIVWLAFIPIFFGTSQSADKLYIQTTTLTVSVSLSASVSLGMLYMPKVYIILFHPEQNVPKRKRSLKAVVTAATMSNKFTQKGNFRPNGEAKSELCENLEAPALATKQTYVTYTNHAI
T1 sequence (Q14831 35-915): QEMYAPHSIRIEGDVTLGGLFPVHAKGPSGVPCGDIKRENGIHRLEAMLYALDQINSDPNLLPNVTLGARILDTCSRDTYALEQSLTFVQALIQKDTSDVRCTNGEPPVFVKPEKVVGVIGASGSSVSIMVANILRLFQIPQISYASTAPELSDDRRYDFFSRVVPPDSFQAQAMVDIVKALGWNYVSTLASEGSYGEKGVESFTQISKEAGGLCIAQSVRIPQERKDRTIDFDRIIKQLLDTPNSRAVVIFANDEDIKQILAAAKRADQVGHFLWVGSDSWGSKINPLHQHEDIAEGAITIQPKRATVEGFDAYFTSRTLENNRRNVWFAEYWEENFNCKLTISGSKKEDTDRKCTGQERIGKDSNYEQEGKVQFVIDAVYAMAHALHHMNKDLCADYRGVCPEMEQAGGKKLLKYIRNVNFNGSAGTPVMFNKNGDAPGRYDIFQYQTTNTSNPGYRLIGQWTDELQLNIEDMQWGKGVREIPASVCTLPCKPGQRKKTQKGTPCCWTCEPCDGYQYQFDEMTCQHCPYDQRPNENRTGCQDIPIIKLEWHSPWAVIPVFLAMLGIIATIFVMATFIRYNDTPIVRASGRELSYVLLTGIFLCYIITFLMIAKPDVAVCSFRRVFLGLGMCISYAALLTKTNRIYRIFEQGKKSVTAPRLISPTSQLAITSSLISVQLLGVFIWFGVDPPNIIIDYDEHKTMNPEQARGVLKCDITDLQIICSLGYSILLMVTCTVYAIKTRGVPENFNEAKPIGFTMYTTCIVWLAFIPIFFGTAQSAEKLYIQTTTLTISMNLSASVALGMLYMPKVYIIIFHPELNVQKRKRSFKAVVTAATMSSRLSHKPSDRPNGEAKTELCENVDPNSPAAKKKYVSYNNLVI
T3 sequence (O00222 34-908): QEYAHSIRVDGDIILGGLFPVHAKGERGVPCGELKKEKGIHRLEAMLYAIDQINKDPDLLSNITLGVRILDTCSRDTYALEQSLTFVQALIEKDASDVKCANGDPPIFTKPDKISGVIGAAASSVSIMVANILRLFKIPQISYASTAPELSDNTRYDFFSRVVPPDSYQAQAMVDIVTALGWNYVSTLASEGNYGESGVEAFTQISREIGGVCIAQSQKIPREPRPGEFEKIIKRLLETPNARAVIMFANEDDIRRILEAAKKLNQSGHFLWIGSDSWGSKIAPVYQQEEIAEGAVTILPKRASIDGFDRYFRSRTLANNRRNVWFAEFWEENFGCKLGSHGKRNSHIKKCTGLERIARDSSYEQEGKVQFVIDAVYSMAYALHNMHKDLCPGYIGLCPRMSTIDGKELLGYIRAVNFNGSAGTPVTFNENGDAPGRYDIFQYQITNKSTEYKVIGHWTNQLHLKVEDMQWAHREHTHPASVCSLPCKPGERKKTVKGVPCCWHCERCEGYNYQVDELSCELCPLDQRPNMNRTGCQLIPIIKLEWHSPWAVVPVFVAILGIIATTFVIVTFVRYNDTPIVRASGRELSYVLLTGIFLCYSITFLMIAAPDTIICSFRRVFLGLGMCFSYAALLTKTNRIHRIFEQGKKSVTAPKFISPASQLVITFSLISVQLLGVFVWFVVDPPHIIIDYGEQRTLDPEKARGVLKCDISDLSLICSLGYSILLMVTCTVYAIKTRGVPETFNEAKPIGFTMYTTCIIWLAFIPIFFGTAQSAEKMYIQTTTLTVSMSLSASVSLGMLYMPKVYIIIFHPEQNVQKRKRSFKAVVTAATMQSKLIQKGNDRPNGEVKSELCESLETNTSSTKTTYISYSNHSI

Compound: Cc1ccnc(Nc2nc(-c3cn[nH]c3)c(C)s2)n1 [ADX88178]
- reduction of DOI-induced HTR (DOI-induced HTR): ≤ 30%

Compound: O=C(Nc1ccc(-c2noc(-c3ccccc3)n2)c(Cl)c1)c1ccccn1 [Compound 49]
- agonistic activity at mGlu7 receptor (mGlu7 receptor): direct agonistic activity
- effect on SIH response (Albino Swiss mice [2]): not effective
- EC50 (mGlu4 receptor [3]): 352 nM
- Emax (mGlu4 receptor [3]): 123%
- Fold shift of L-Glu dose-response curve (mGlu4 receptor [3]): 6.77 (0.53)^d
- effect on DOI-induced HTR (Albino Swiss mice [4]): not effective; also recorded: no influence
- mutagenic activity (mini-AMES) [5]: no mutagenic potential

Compound: Cc1cc(NC(=O)c2ccccn2)ccc1-c1noc(-c2ccccc2Cl)n1 [Compound 62, N-(4-(5-(2-chlorophenyl)-1,2,4-oxadiazol-3-yl)-3-methylphenyl)picolinamide]
- agonistic action at mGlu4 receptor (mGlu4 receptor [6]): lacked agonistic action
- agonistic activity at mGlu7 receptor (mGlu7 receptor): lacked agonistic action
- agonistic activity at mGlu8 receptor (mGlu8 receptor): lacked agonistic action
- effect on SIH response (Albino Swiss mice [2]): significant anxiolytic- and antipsychotic-like properties; also recorded: significantly reduced SIH responses at all three doses; also recorded: at all doses significantly reduced the SIH response
- EC50 (mGlu4 receptor [3]): 308 nM
- Emax (mGlu4 receptor [3]): 135%
- Fold shift of L-Glu dose-response curve (mGlu4 receptor [3]): 3.3 (0.34)^d
- effect on DOI-induced HTR (Albino Swiss mice [4]): significant anxiolytic- and antipsychotic-like properties; also recorded: at all doses significantly reduced; also recorded: Clear dose-response effects; also recorded: clear dose-dependent response and high potency; also recorded: comparable to that of clozapine
- mutagenic activity (mini-AMES) [5]: no mutagenic potential

Compound: O/N=c1\cc(-c2cc3sccc3cn2)oc2ccc(CCCN3CCOCC3)cc12 [PXT002331]
- EC50 (mGlu4 receptor [1]; PAM, read-out: mGlu4 PAM potency EC50): 46 nM

Compound: O=C(Nc1cc(Cl)cc(Cl)c1)[C@H]1CCCC[C@H]1C(=O)O [VU0155041]
- EC50 (mGlu4 receptor [1]; reference ago-PAM, read-out: agonist activity at mGlu4 receptor, EC50): 2500 nM
- effect on forskolin-induced cAMP accumulation in mock cells [7]: no effects

Compound: O=C(Nc1ccccn1)C12CC1C(=NO)c1ccccc1O2 (centres unmarked) [VU0359516]
- EC50 (mGlu4 receptor [1]; PAM, read-out: EC50 (mGlu4 receptor PAM)): 380 nM

Compound: FC(F)(F)c1nccc2cc(Nc3n[nH]c4ncccc34)ccc12 [Valiglurax]
- EC50 (mGlu4 receptor [1]; PAM, read-out: mGlu4 receptor PAM potency EC50): 64.6 nM
